How the values of series [1] were obtained:
10 mg of molecule A are added per 1 ml of aqueous solution.
The suspensions are stirred at 25° C. for 24 hours and are then centrifuged. The amount of molecule A in the supernatant is determined by HPLC and the pH of the supernatant is checked.
The apparent solubility of molecule A in the various oils, surfactants, cosurfactants, DMSO and glycofurol was also determined. Small amounts of molecule A are added to 1 g of each vehicle. Dissolution is carried out by ultrasound treatment at 25° C. Dissolution is confirmed visually and by optical microscopy. The solubility is estimated to within about 1 mg.

For series [2] the following is noted: from a suspension.
A short description of series [3]: Stability of molecule A in human duodenal liquid. In kind it is in vitro ADME. The following applies: FIG. 5. Here is the method: For each stability test, the necessary volume of a sample of human duodenal liquid frozen immediately after withdrawal is defrosted. Centrifuging at 1000 g for 15 min removes the substances resembling mucus. The pH of the supernatant is adjusted to 6.40 by addition of MES buffer (1250 mM in PBS-CMF), a value similar to the mean value of the pH of the fresh duodenal liquid.
Molecule A is dissolved in DMSO and either diluted directly in HESS/HEPES buffer (control) or prepared in the formulations before dilution in HBSS/HEPES in order to obtain a microemulsion. The final concentration in both cases is 10^−4M.
The formulations, preheated to 37° C., are added to the duodenal liquid, maintained at 37° C., in a 1/1 (v/v) ratio and are immediately mixed, in order for the final concentration of molecule A to be 5×10^−5M.
At T=0 (immediately after mixing) and at T=5, 10, 15, 30, 60, 90 and 120 minutes, […] samples of each preparation are withdrawn and mixed with the same volume of acetone at 4° C. to halt the enzymatic reaction. The samples were subsequently centrifuged (1000 g for 5 min) and the supernatant is tested by a validated LC/MS/MS method.

The test system of series [4] is Caco-2/TC7 clone cells.
Description: (§1) The Caco-2 strains used in the tests are Caco-2/TC7 clone cells.
(§2) In order to evaluate the scale of permeability of molecule A dissolved in DMSO as a function of the concentration, two solutions are prepared. The first, to which molecule A labelled with ^14C will be added, is 4.3×10^−2M; the second, to which ^14C-mannitol will be added, is 5×10^−2M.
(§3) These DMSO solutions are subsequently diluted in a 25 mM HBSS/HEPES buffer (pH 7.4) to which 0.4 μCi/ml of ^14C-mannitol or 0.4 μCi/ml of molecule A labelled with ^14C has been added (corresponding to 7 μM), so as to obtain final concentrations of molecule A of 7, 10, 50 or 100 mM.
(§4) The final concentration of DMSO in each donor solution is adjusted to 0.5%.
(§5) Donor solutions comprising 0.5% DMSO but comprising no compound are used as controls.
(§6) To analyse the role of P-glycoprotein in the mechanism of the transport of molecule A, donor solutions comprising 10 mM of molecule A and 100 mM of verapamil, nicardipine or progesterone are prepared and the permeability of molecule A is evaluated and compared with that obtained without the P-glycoprotein modulator.
(§7) To study the effects of glycofurol and of macrogol 300 on the permeability of molecule A: • Molecule A is dissolved in glycofurol in order to obtain 4.3×10^−3M or 5×10^−3M solutions. These are subsequently diluted in the HBSS/HEPES buffer to which 0.4 μCi/ml of ^14C-mannitol or 0.4 μCi/ml of molecule A labelled with ^14C has been added (see above), in order to obtain donor solutions for which the final concentration of molecule A is 50 μM and the final content of glycofurol is 1%. • Molecule A is dissolved in macrogol 300 in order to obtain 0.3×10^−3M or 10^−3M solutions.
(§8) Before any formulation, molecule A is dissolved in DMSO or glycofurol in order to obtain, in each solvent, solutions with concentrations of 4.3×10^−3M or 5×10^−3M. 40 μCi/ml of molecule A labelled with ^14C are added to the 4.3×10^−3M solutions, so that the theoretical concentration of molecule A is 5×10^−3M. 40 μCi/ml of ^14C-mannitol are added to the 5×10^−3M solutions.
(§9) Each of the solutions thus obtained is subsequently diluted in the mixtures under consideration of lipid excipients and of surfactants and, if appropriate, of cosurfactants, giving formulations comprising the solvent (DMSO or glycofurol) at 10% and molecule A at 5×10^−4M.
(§10) These formulations are diluted in 25 mM HBSS/HEPES buffer to give the donor solutions, the final concentration of molecule A of which is 5×10^−5M, which comprise 0.4 μCi/ml of molecule A labelled with 14C or else 0.4 μCi/ml of 14C-mannitol, and the proportion of lipid excipient of which is less than 1%. […]
Another series in a line: in vitro. To be noted: human, Caco-2, pH 7.4.
For series [5], the system named is Caco-2/TC7 clone cells. Briefly: Transport (apparent permeability AB/BA) through Caco-2 cell monolayers. The following applies: solvents used to prepare the formulations (FIG. 3). On the technique in general: Caco-2 monolayers are a common model of the intestinal barrier.
Description: as §1, §2, §3, §4, §5, §6, §7, §8, §9, §10

In brackets after ≈: the same amount, converted by molar mass. Like-named read-outs stand apart in the source and are kept apart here.

Description for in vitro: as §1, §2, §3, §4, §5, §6, §7, §8, §9, §10

Take `CCOC(=O)[C@H](CNC(=O)c1ccc(CCC(=O)NC2=NCCCN2)cc1)NS(=O)(=O)c1cccc2ccccc12` [molecule A, ethyl ester of (2S)-2-(naphthyl-1-sulphonylamino)-3-(4-(2-(1,4,5,6-tetrahydropyrimidin-2-ylcarbamoyl)ethyl)-benzoylamino)propionic acid]: the values for the solubility in series [1] (aqueous medium at physiological pH of the intestines), in series [1] (in glycofurol) and in series [1] (in macrogol 300) were 0.4 mg/mL (≈ 0.69 mM), 6 mg/mL (≈ 10.4 mM) and 2 mg/mL (≈ 3.45 mM), respectively. For the same compound, the absolute bioavailability result in series [2] is “less than 1%”. The “absorption of the active principle orally” value in series [2] was “less than 1%”. For the same compound, the “stability in human duodenal liquid (in words)” value in series [3] is “unstable”.

On to `O=C(CCCOc1ccc(C[C@H](NC(=O)OCc2ccccc2)C(=O)O)cc1)NC1=NCCCN1` [molecule B, (2S)-2-benzyloxycarbonylamino-3-(4-(3-(1,4,5,6-tetrahydropyrimidin-2-ylcarbamoyl)propyloxy)phenyl)-propionic acid], for which the “efflux by P-glycoprotein (in words)” value in the series with Caco-2/TC7 clone cells [4] (Caco-2) is recorded as “undergoes efflux by P-glycoprotein”. For the same compound, the “increase in the transport in the AB direction by a factor, with respect to 0.5% DMSO” value in the series on Caco-2/TC7 clone cells [4] (human, Caco-2, 120 min, pH 7.4) is listed as 5.9. For the same compound, the Papp B→A (in general, how fast a substance crosses the layer from the basolateral side) at 120 min in “in vitro” came to 2.1 ×10⁻⁶ cm/s.

As for glycofurol, the “effect of the solvent on the Papp values of molecule A” value in the series on Caco-2/TC7 clone cells [5] was “no effect”.

The record behind these values is US20080193519A1, “Galenic Applications of Self-Emulsifying Mixtures of Lipidic Excipients” (Aventis Pharma S.A., priority 2004, published 2008).
